Six compounds from PMC10065791 (eLife, 2023) can be followed below.

One assay has as its system wild-type virus NL4-3. The assay is described as follows: TZM infection assay (cell culture-based viral inhibition), wild-type virus. Also on record: species or system HIV-1. The conditions noted are these: Human immunodeficiency virus 1, NL43; wild-type NL4-3 virus; concentration at time of virus production reducing infectivity by 50%; TZM-bl readout. How it is done: PI dilutions were prepared by taking 10 µM stocked and performing a fivefold serial dilution using RPMI media (final drug concentration is […]). One dilution of drug was added to each well of a 24-well plate and repeated so each virus would have a full set of dilutions. Viruses for the assay were made by seeding 3 × 10^6 CEM cells in a 24-well plate and incubating with 250 µl of virus at 37°C for 2–3 hr before bringing the culture to 10 ml with RPMI media. After 48 hr, the medium was changed and repeated every 48 hr after until the culture had undergone CPE. Infected CEM cells were collected and diluted so that 1 ml of cells could be plated in each well containing a unique drug dilution. Then 24 hr later the virus supernatant was collected from each well followed by filtering through a […] then placed in –80°C. Viruses were thawed and added to 96-well plates in triplicate. TZM-bl cells were collected and diluted to a concentration of 2 × 10^5 cells/ml, 100 µl were added on top of the pre-plated viruses. Plates were kept in 37°C, 5% CO2 in an incubator for 48 hr. After 48 hr, the cells in the plates were lysed by removing the medium, washing two times with 100 µl PBS, and then lysed with 1× lysis buffer (made from 5× Promega Firefly Lysis Buffer). Plates were frozen for at least 24 hr and then thawed for 2 hr before analyzing with Promega Firefly Luciferase Kit on a luminometer. Data was analyzed with Prism 7 to fit sigmoidal dose–response curves.

Assay [1] concerns HIV-1 NL4-3 wild-type virus. The assay can be described thus: Selection for resistance in CEMx174 culture with escalating inhibitor, start wild-type virus, Primer ID deep sequencing. The assay is classed as cell-based. On the procedure:
. The selection experiments were performed under two separate starting conditions: first when the starting virus was generated from the NL4-3 clone (this clone closely approximates the clade B consensus for the protease amino acid sequence and will be referred to as ‘wild type’), then again when the starting virus was a mixture of 26 isogenic viruses each with a single mutation associated with drug resistance in the NL4-3 background. […]. For technical reasons, only five of the selections starting with the mixture of mutants reached an inhibitor concentration as high as 400 nM and are reported here (Figure 2—figure supplement 3).
Resistance mutations selected in the protease coding domain during the escalating selective pressure of increasing PI concentration were examined at various timepoints using a next-generation sequencing (NGS) protocol that included Primer ID with the MiSeq platform ([Zhou et al., 2015]). We first examined the sequence of the most abundant variant in each of the two selection schemes present at the highest inhibitor concentration reached (Figure 2A). For those selections that reached 5 μM, 8–14 mutations were present in the most abundant variant. Typically the next two most abundant variants in the population differed by a single amino acid, and on average the three most abundant variants in the 5 μM cultures accounted for 88% of the total viral population (Figure 2—source data 1). Evolution of resistance followed two pathways, one based on I50V and one based on I84V. In three cultures, V2wt, V5wt, and V2mut (which reached either 4 or 5 μM final drug concentration; V2wt indicates the virus pool selected with UMASS-2 starting with wild-type virus), these two mutations, I84V and I50V, became linked on the same genome (Figure 2A) showing they are not mutually exclusive; […].
An aliquot of 3 × 10^6 CEMx174 cells was incubated at 37°C for 2–3 hr with 250 µl of a virus stock generated from the HIV-1 infectious molecular clone pNL4-3. The culture volume was then brought to 10 ml with RPMI medium. […] After 48 hr and every 48 hr after, the cells were pelleted by centrifugation and 10 ml of fresh medium and inhibitors were added. When the culture had undergone extensive cytopathic effect (CPE) indicative of viral replication, the supernatant medium and the cells were harvested separately and stored at –80°C. The virus-containing supernatant was used to start the next round of infection, and after several rounds at the initial concentration, the inhibitor concentration was increased 1.5-fold at each subsequent round of virus passage.
We used the PID protocol to prepare MiSeq PID libraries with multiplexed primers. Viral RNA was extracted from plasma samples using the QIAamp viral RNA mini kit (QIAGEN, Hilden, Germany). Complementary DNA (cDNA) was synthesized using a cDNA primer mixture targeting protease (PR) with a block of random nucleotides in each cDNA primer serving as the PID, and SuperScript III RT (Thermo Fisher). After two rounds of bead purification of the cDNA, we amplified the cDNA using a mixture of a forward primer that targeted the upstream coding region, followed by a second round of PCR to incorporate the Illumina adaptor sequences. Gel-purified libraries were pooled and sequenced using the MiSeq 300 base paired-end sequencing protocol (Illumina). The sequencing covered the HIV-1 PR region (HXB2 2648-2914, 3001-3257).
We used the Illumina bcl2fastq pipeline for the initial processing and constructed template consensus sequences (TCSs) with TCS pipeline version 1.33 (https://github.com/SwanstromLab/PID) ([Zhou, 2019]). We then aligned TCSs to an HXB2 reference to remove sequences not at the targeted region or that had large deletions. We used the Entropy tool at LANL (https://www.hiv.lanl.gov/content/sequence/ENTROPY/entropy.html) to calculate entropy for each specimen. The sequencing data is available at NIH Sequencing Read Archive (SRA) under BioProject ID PRJNA853351.

In the assay on wild-type virus NL4-3, `CC[C@H](C)CN(C[C@@H](O)[C@H](Cc1ccccc1)NC(=O)O[C@H]1CO[C@H]2OCC[C@H]21)S(=O)(=O)c1ccc(CO)cc1` [UMASS-3] came in with an EC50 of 9.1 ± 1 nM. The “Abundance of variant at the last time point” value (shortened to “Abundance of variant”) came out at 0.9% in assay [1] (variant 10F/33F/46I/47V/50V/53L/63P/71V/76S/82I, passage 93, [PI] 5000 nM); 85.7% in assay [1] (variant 10F/33F/46I/47V/50V/53L/63P/71V/76S/82I/85V/89I, passage 93, [PI] 5000 nM); 1.1% in assay [1] (variant 10F/33F/46I/47V/50V/53L/63P/71V/76S/82I/85V/89I/91S, passage 93, [PI] 5000 nM).
As to `CC[C@H](C)CN(C[C@@H](O)[C@H](Cc1ccccc1)NC(=O)O[C@H]1CO[C@H]2OCC[C@H]21)S(=O)(=O)c1ccc2c(c1)OCO2` [UMASS-4], in the assay on wild-type virus NL4-3, a half-maximal effect (EC50) was put at 3.2 ± 0.4 nM. The “Abundance of variant” value in assay [1] (variant 10F/11I/13V/32I/33F/43T/46L/54L/71V/82I/84V/89M/91S/92R, passage 81, [PI] 5000 nM) was determined as 87.3%; in assay [1] (variant 10F/11I/32I/33F/43T/46L/54L/71V/82I/84V/89M/91S, passage 81, [PI] 5000 nM), 1.3%; in assay [1] (variant 10F/11I/32I/33F/46L/54L/71V/82I/84V/89M/91S, passage 81, [PI] 5000 nM) it was 1.1%.
In turn, `CC[C@H](C)CN(C[C@@H](O)[C@H](Cc1ccccc1)NC(=O)O[C@H]1CO[C@H]2OCC[C@H]21)S(=O)(=O)c1ccc2ncsc2c1` [UMASS-5] displayed an EC50 in the assay on wild-type virus NL4-3 of 4 ± 0.5 nM. In addition, the “Abundance of variant” value worked out at 67.9% in assay [1] (variant 10F/15V/46I/47V/50V/53L/71V/82I/84V/89T, passage 77, [PI] 5000 nM); 8.8% in assay [1] (variant 10F/46I/47V/50V/53L/63P/71V/82I/84V/89M, passage 77, [PI] 5000 nM); 10.9% in assay [1] (variant 10F/46I/47V/50V/53L/71V/82I/84V/89T, passage 77, [PI] 5000 nM).
For `CCC(CC)CN(C[C@@H](O)[C@H](Cc1ccccc1)NC(=O)O[C@H]1CO[C@H]2OCC[C@H]21)S(=O)(=O)c1ccc(N)cc1` [UMASS-6], the EC50 with wild-type virus NL4-3 worked out at 5.2 ± 0.8 nM. Further, the “Abundance of variant” value in assay [1] (variant 10F/13V/16E/33F/46I/47A/50V/53L/71V, passage 46, [PI] 5000 nM) is on record as 2.2%; in assay [1] (variant 10F/13V/33F/46I/47A/50V/53L/63P/71V, passage 46, [PI] 5000 nM) it was 42.3%; in assay [1] (variant 10F/13V/33F/46I/47A/50V/53L/71V, passage 46, [PI] 5000 nM) it was 45.1%.
For the compound `CCC(CC)CN(C[C@@H](O)[C@H](Cc1ccccc1)NC(=O)O[C@H]1CO[C@H]2OCC[C@H]21)S(=O)(=O)c1ccc(OC)cc1` [UMASS-7], in the assay with wild-type virus NL4-3, the midpoint of the response, the EC50, lay at 3.1 ± 0.5 nM. Moreover, the “Abundance of variant” value is listed as 0.2% in assay [1] (variant 10F/13V/33F/46I/47V/50V/53L/54L/67Y/71V/82I, passage 76, [PI] 5000 nM); 94.5% in assay [1] (variant 10F/13V/33F/46I/47V/50V/53L/54L/71V/82I, passage 76, [PI] 5000 nM); 0.2% in assay [1] (variant 10F/13V/33F/46I/47V/50V/53L/54L/71V/82I/87K, passage 76, [PI] 5000 nM).
Take `CCC(CC)CN(C[C@@H](O)[C@H](Cc1ccccc1)NC(=O)O[C@H]1CO[C@H]2OCC[C@H]21)S(=O)(=O)c1ccc2c(c1)OCO2` [UMASS-9]: the EC50 with wild-type virus NL4-3 stood at 6.4 ± 1.2 nM. In addition, the “Abundance of variant” value in assay [1] (variant 10F/13V/33F/41K/45R/46I/47V/50V/53L/54L/66F/71V/74A/76S/82I, passage 78, [PI] 5000 nM) is given as 0.7%; in assay [1] (variant 10F/13V/33F/45R/46I/47V/50V/53L/54L/66F/71V/74A/76S/82I, passage 78, [PI] 5000 nM), 92.3%; in assay [1] (variant 10F/13V/33F/45R/46I/47V/50V/53L/54L/66F/71V/74A/76S/82I/87K, passage 78, [PI] 5000 nM), 0.4%.
